In patent US8815577B2, “Assay electrode having immobilized lipid/protein layers, methods of making the same and methods of using the same for luminescence test measurements” (Meso Scale Technologies, LLC, priority 2001, dated 2014):

Columns and labels:
[1] = tested on: EGFR in A431 cells; assay: Measurement of EGFR activation dependent binding events (prophetic); format: cell-based; settings: membrane fragments of EGF-activated A431 cells
From the text: Activation of the EGFR leads to autophosphorylation of EGFR followed by the sequential binding of shc to EGFR and grb-2 to shc. The cells are lysed as described in Example 1.2 to form cell membrane fragments (and, preferably, purified by centrifugation). The cell membrane fragments are immobilized on carbon electrodes integrated into the multi-well plates by passive adsorption (as described in Example 1.3) or specific binding to a capture reagent immobilized on the electrode (e.g., wheat germ agglutinin, anti-EGFR, or another antibody specific for a membrane component, preferably, an epitope found on the cytoplasmic side). The immobilized membrane fragments are treated with a buffered solution containing an STAG-labeled antibody directed against shc or grb-1. In an alternate protocol, the membranes and antibody are premixed prior to addition of the membranes to the wells. A buffered tripropylamine solution is introduced into the well and ECL is induced and measured as described in Example 1.4.

[2] = tested on: EGFR in A431 cells; assay: Measuring of EGFR activation dependent phosphorylation (prophetic); format: cell-based; settings: membrane fragments of EGF-activated A431 cells
From the text: Activation of EGFR leads to its autophosphorylation. The cells are lysed as described in Example 1.2 to form cell membrane fragments (and, preferably, purified by centrifugation). The cell membrane fragments are immobilized on carbon electrodes integrated into the multi-well plates by passive adsorption or specific binding to a capture reagent previously immobilized on the electrode (e.g., wheat germ agglutinin, anti-EGFR, or another antibody specific for a membrane component, preferably, an epitope found on the cytoplasmic side) (as described in Example 1.3). The immobilized membrane fragments are treated with a buffered solution containing a STAG-labeled anti-phosphotyrosine antibody. In an alternate protocol, the membranes and antibody are premixed prior to addition of the membranes to the wells. A buffered tripropylamine solution is introduced to the well and ECL is induced and measured as described in Example 1.4.

[3] = tested on: tyrosine phosphatase activity / phosphotyrosine content in U2-OS cells; assay: Cellular phosphotyrosine content in fixed U2-OS cells grown on carbon electrode, ECL detection (tyrosine phosphatase inhibition); format: cell-based; settings: 1 mM, 30 minute incubation
Description: U2-OS cells were grown in non-plasma treated Multi-Array plates using the growth conditions recommended by the American Type Culture Collection (ATCC reference number HTB-96). The plates were partially sterilized beforehand by illumination with a high energy UV light (Strata Linker Model 2400, Stratagene) set to deliver 9999 joules to the plate surface over the course of 5 minutes. Approximately 10,000 trypsinized cells were dispensed to each well of the 96 well plate in 100 μl of tissue culture media (see ATCC reference above) and incubated overnight in a cell culture incubator (at 37° C. in a humidified atmosphere containing 5% CO2) to promote attachment of the cells to the electrode surface.
Per-Vanadate, a tyrosine phosphatase inhibitor was added to a some of the wells to give a final concentration of 1 mM in those wells. […]
Phosphotyrosine containing proteins were detected by incubating the wells for one hour in 90 μl of PBS/FBS containing an anti-phosphotyrosine monoclonal antibody (100 ng/mL) and an anti-mouse secondary antibody (200 ng/mL) that was labeled with ruthenium-tris-bipyridine (ORI-TAG NHS Ester, IGEN International). […] ECL Assay Buffer was added (150 μl of OriGlo Plus, IGEN International) and the plate was analyzed using a Sector HTS instrument.

[4] = molecular target: melanocortin 5 receptor (MC5) (Homo sapiens, UniProt P33032); settings: at the higher concentrations
Chain of melanocortin 5 receptor (MC5) (P33032 whole entry): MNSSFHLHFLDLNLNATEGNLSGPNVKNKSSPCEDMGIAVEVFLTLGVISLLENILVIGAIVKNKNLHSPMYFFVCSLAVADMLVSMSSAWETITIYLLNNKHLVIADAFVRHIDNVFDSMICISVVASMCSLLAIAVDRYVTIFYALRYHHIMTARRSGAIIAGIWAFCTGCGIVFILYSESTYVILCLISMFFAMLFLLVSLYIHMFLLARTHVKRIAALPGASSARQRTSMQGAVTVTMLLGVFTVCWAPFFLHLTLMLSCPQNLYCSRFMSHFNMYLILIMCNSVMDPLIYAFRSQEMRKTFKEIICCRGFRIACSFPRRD
Description: The membrane fragments came from HEK-293 cells that were transformed to express MC5.
Pure PHA-E was passively adsorbed onto the working electrode of plasma-treated Multi-Array 384-well plates by dispensing PHA-E (10 pmol per well) in PBS (5 μL per well) into the wells of the plate. Plates were sealed and incubated for 1 h at ambient temperature. Following the incubation, 3% BSA blocking solution was added (65 μL per well) and the plates were sealed and incubated for 1 h at room temperature. Plates were washed 4 times with PBS and dried. MC5 containing membrane fragments were immobilized in the plates using the procedure described in Example 2.3.1 except that in this case the immobilization occurred via lectin-sugar interactions.
In this Example, MC5 containing membrane fragments were immobilized on the electrode surface of plasma treated Multi-Array 96 well plates (Meso Scale Discovery) by capture on a passively adsorbed layer of pure Pokeweed Mitogen according to an immobilization protocol analogous to that described in the Example 2.3.2. […] The fluid in the wells was then removed and 150 μL of a buffered detergent-free solution of tripropylamine (MSD Assay Buffer T, surfactant free, Meso Scale Discovery) was added. ECL from the wells was measured using a Sector HTS plate reader.

## EGF: epidermal growth factor, ligand of EGFR (NSDSECPLSHDGYCLHDGVCMYIEALDKYACNCVVGYIGERCQYRDLKWWELR; not fully specified; Epidermal growth factor; UniProt P01133 971-1023, looked up)
[1]
  ECL signal (STAG-labeled antibody against shc or grb-1) versus control A431 cells not exposed to EGF: greater
[2]
  ECL signal (STAG-labeled anti-phosphotyrosine antibody) versus control A431 cells not exposed to EGF: greater

## Per-vanadate
[3]
  ECL signal after subtraction of background, relative to untreated cells: more than three times higher
[3]; n=4
  Average ECL signal (anti-phosphotyrosine antibody): 7690.0

## [Nle4,D-Phe7]-α-melanocyte-stimulating hormone [NDP-α-MSH]
[4]
  inhibition of the binding of NDP-α-MSH-TAG to MC5: almost complete
